The text below walks through data of US6653460B1 (priority 1996, dated 2003).

The target in experiment [1] is T1, class E calcium channels (192C cells) (Homo sapiens, UniProt Q15878).
T1 construct: expressed in transfected cells; host or cells: HEK 293 (192C cells)
The class given is cell-based.

For experiment [2], the system named is calcium current (carried by barium) in neurohypophysial terminals. The class given is cell-based, rat.

T1 sequence (Q15878 whole entry): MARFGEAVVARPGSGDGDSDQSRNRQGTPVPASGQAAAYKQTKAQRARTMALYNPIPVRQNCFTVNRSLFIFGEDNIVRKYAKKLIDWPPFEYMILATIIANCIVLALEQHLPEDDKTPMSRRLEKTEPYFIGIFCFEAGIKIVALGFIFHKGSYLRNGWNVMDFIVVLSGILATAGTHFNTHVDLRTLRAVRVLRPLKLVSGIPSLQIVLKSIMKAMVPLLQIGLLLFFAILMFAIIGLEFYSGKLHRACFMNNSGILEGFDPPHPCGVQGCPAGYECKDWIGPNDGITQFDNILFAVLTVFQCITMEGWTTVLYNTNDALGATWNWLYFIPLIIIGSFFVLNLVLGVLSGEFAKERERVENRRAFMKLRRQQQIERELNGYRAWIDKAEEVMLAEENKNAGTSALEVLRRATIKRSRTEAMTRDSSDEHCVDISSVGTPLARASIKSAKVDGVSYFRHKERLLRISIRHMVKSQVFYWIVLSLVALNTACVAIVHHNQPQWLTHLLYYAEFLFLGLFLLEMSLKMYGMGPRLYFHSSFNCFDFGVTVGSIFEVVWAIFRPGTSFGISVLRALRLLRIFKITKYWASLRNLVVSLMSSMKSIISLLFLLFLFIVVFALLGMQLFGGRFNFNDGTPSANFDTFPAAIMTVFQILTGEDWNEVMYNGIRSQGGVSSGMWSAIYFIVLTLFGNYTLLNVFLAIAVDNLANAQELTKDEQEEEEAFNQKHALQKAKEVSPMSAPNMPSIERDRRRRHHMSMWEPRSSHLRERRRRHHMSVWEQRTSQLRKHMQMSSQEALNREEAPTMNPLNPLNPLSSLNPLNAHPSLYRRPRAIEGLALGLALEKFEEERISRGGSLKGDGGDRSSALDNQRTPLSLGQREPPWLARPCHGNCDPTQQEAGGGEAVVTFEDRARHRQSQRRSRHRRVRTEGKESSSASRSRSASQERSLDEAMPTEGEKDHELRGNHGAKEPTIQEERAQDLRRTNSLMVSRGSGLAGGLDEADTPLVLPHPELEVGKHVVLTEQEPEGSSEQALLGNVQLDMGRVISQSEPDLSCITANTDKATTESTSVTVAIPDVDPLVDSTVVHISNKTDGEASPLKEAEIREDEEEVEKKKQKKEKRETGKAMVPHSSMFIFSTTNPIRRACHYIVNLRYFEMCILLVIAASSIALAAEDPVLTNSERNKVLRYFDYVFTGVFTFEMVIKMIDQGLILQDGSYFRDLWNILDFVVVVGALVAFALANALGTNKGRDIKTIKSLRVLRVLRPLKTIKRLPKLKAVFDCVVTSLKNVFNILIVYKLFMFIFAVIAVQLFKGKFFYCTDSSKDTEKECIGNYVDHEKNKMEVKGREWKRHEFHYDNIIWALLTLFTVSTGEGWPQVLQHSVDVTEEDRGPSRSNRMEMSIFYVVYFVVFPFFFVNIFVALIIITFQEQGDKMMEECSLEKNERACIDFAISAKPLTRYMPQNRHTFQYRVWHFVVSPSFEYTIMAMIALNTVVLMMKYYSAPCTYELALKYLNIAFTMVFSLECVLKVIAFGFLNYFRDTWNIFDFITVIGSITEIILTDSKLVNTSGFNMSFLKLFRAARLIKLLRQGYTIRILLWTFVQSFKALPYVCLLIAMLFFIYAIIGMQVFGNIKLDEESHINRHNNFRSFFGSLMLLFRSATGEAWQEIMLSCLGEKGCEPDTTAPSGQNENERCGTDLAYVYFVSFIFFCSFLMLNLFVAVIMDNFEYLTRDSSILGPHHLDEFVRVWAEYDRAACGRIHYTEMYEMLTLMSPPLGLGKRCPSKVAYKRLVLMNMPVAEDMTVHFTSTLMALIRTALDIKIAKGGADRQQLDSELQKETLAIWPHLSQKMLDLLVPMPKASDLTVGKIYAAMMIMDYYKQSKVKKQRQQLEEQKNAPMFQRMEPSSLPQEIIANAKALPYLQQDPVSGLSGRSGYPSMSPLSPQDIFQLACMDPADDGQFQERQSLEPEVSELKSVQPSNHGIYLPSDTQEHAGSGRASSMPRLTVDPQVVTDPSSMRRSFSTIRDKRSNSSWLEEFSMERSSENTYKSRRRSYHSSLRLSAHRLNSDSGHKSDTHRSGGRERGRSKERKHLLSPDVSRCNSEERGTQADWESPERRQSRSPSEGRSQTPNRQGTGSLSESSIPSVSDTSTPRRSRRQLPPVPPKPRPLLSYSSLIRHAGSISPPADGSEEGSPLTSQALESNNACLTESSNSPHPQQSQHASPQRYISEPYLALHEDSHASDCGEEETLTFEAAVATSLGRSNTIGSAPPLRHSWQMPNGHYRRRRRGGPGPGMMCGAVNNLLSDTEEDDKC

For `CSCC[C@@H]1NC(=O)[C@H](CC(C)C)NC(=O)[C@H](CCCNC(=N)N)NC(=O)[C@H](CO)NC(=O)[C@@H]2CSSC[C@@H]3NC(=O)[C@H](CO)NC(=O)CNC(=O)[C@H]([C@@H](C)O)NC(=O)[C@H](CSSC[C@H](N)C(=O)N[C@@H](CCCCN)C(=O)NCC(=O)N[C@@H](CCCCN)C(=O)NCC(=O)N[C@@H](C)C(=O)N[C@@H](CCCCN)C(=O)N2)NC(=O)[C@H](CSSC[C@@H](C(N)=O)NC(=O)[C@H](CCCCN)NC(=O)CNC(=O)[C@H](CO)NC(=O)[C@H](CCCNC(=N)N)NC3=O)NC(=O)[C@H](CC(=O)O)NC(=O)[C@H](Cc2ccc(O)cc2)NC1=O` [SNX-111], in experiment [1], the “sensitivity of depolarization evoked increase in internal calcium” value was “resistant”. In addition, in experiment [2], the “block of current remaining after nicardipine” value is “blocked part but not all of the remaining current”.
